# In patent publication US20230330133A1, “METHODS FOR THE TREATMENT OF CHOLESTEROL CRYSTAL EMBOLIZATION WITH CYCLODEXTRINS” (Beren Therapeutics P.B.C., priority 2020, published 2023):
# Experiments:
# [1] = human subject, single-ascending i.v. doses 500-1,000 mg/kg every 4 weeks; after treatment vs pre-dose; FIG. 1A
# Procedure: A human subject was treated with 2-hydroxypropyl-beta-cyclodextrin with single-ascending doses administered intravenously every 4 weeks according to Table 1 below. […] For each dose, whole blood was collected pre-dose, post-dose (line flush), 1 hour post-dose, and 24 hours post-dose. Plasma was separated from the whole blood and subjected to a cholesterol crystal dissolution capacity (CCDC) assay using techniques similar to those described in the literature. The CCDC assay measures the ability of a sample to dissolve cholesterol crystals.
# [2] = pre-dose human plasma incubated ex vivo with the substance; FIG. 1B
# Procedure: For each dose, whole blood was collected pre-dose, post-dose (line flush), 1 hour post-dose, and 24 hours post-dose. Plasma was separated from the whole blood and subjected to a cholesterol crystal dissolution capacity (CCDC) assay using techniques similar to those described in the literature. The CCDC assay measures the ability of a sample to dissolve cholesterol crystals.
# Blood plasma pre-dose was also incubated ex vivo with 2-hydroxypropyl-beta-cyclodextrin and the ability of the plasma to dissolve cholesterol crystals was measured.
# [3] = human subject, i.v. 500-1,000 mg/kg every 4 weeks, FIGS. 2A-2C
# Procedure: (§1) A human subject was treated with 2-hydroxypropyl-beta-cyclodextrin with single-ascending doses administered intravenously every 4 weeks according to Table 1 below.
# In this Example, a human subject was treated with 2-hydroxypropyl-beta-cyclodextrin according to Example 1, and plasma levels of 24S-hydroxycholesterol and 27-hydroxycholesterol were measured. […] 27-hydroxycholesterol is an endogenous LXR ligand leading to a downstream anti-inflammatory gene signature which may, in some embodiments, address the detrimental inflammatory response via NLRP3 inflammasome effects of cholesterol crystal embolization. The elevated 27-hydroxycholesterol is also a cellular marker of macrophage activation and increased activity for cholesterol crystal phagocytosis and clearance.
# ABCA1 = conditions: peripheral blood, human subject, i.v. 500-1,000 mg/kg every 4 weeks; FIGS. 3A-3D
# Procedure: as §1
# (§2) In this Example, a human subject was treated with 2-hydroxypropyl-beta-cyclodextrin according to Example 1, and mRNA levels of the LXR transcription factor-regulated genes, ABCA1 and ABCG1, were measured. […] ABCA1 and ABCG1 are important cholesterol transporters and are responsible for cholesterol efflux from cells, loading of HDL particles for reverse cholesterol transport (RCT), and excretion via the hepatic pathway, to potentially reduce the cholesterol and cholesterol crystal emboli released into the vasculature and stabilize ruptured atherosclerotic plaque.
# ABCG1 = conditions: peripheral blood, human subject, i.v. 500-1,000 mg/kg every 4 weeks; FIGS. 3A-3D
# Procedure: as §1, §2
substance,measurement,setting,value
2-hydroxypropyl-beta-cyclodextrin,capability of blood plasma to dissolve cholesterol crystals (CCDC),[1],increased capability of blood plasma to dissolve cholesterol crystals
same,capacity of plasma to dissolve cholesterol crystals (CCDC),[2],increased capacity to dissolve cholesterol crystals
same,plasma levels of 24S-hydroxycholesterol,[3],increased
same,plasma levels of 27-hydroxycholesterol,[3],increased
same,total cholesterol levels,[3]; plasma,remained stable
same,mRNA levels of ABCA1,ABCA1,increased
same,mRNA levels of ABCG1,ABCG1,increased
